Source: ChEMBL document CHEMBL1129899, “Synthesis of CD-ring modified 1,25-dihydroxy vitamin D analogues: Five-membered D-ring analogues” (1997)

What was measured:
[1] = target: T1, Vitamin D3 receptor (Homo sapiens) (UniProt P11473); assay: Relative affinity compared to Calcitriol in displacement of [3H]1H]1-alpha,25(OH)2D3 from vitamin D receptor (VDR) in MG-63 cells; assay type: functional, cell-based
T1 sequence (whole entry): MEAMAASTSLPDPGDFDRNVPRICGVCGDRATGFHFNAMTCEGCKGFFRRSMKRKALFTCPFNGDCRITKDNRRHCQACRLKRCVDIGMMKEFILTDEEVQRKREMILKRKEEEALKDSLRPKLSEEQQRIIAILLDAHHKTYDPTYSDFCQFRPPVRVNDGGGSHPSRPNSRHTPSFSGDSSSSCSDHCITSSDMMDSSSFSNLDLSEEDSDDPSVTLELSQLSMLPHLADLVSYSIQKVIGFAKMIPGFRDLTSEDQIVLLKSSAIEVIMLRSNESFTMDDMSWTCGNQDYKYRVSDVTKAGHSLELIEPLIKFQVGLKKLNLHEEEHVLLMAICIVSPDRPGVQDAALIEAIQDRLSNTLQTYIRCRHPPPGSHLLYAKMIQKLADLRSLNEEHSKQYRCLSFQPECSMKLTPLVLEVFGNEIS

[2] = tested on: Mus musculus; assay: In vivo calcemic effect was tested in vitamin D replete normal […] mice by measuring calcium levels in serum; assay type: functional; set-up: reference not given here
[3] = target: T1, Vitamin D3 receptor (Homo sapiens); assay: Relative affinity compared to Calcitriol in displacement of [3H]1H]1-alpha,25(OH)2D3 from Vitamin D3 receptor in HL-60 cells; assay type: functional, cell-based
[4] = target: T1, Vitamin D3 receptor (Homo sapiens); assay: Relative affinity compared to Calcitriol in displacement of [3H]1H]1-alpha,25(OH)2D3 from vitamin D3 receptor in […] cells; assay type: cell-based
[5] = target: T2, Vitamin D3 receptor (Sus scrofa) (UniProt A3RGC1); assay: Affinity for pig intestinal mucosa Vitamin D3 receptor (VDR); assay type: tissue-based
T2 sequence (whole entry): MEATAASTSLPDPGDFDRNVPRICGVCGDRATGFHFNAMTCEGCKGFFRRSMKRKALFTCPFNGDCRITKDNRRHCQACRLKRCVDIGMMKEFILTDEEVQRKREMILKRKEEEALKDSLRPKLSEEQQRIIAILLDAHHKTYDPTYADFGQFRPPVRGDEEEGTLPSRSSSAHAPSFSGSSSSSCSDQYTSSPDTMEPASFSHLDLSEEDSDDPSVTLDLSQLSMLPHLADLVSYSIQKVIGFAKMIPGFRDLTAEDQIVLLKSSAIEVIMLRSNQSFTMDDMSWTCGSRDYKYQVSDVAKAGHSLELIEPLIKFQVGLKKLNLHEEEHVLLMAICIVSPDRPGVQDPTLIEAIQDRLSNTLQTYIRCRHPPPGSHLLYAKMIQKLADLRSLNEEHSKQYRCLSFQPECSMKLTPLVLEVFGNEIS

[6] = tested on: keratinocytes (Homo sapiens); assay: Antiproliferative activity relative to Calcitriol in Keratinocyte cell lines

Activity [1]	Activity [3]	Activity [4]	Activity [5]	Activity [6]	Compound	Activity [2]
8%	10%	1%	80	85%	C=C1/C(=C/C=C/[C@@H]2CC[C@H]([C@H](C)CCCC(C)(C)O)[C@@]2(C)CCC)C[C@@H](O)C[C@@H]1O	1
10%	100%	85%	70	100%	C=C1/C(=C/C=C/[C@@H]2CC[C@H]([C@@H](C)CCCC(C)(C)O)C2(C)C)C[C@@H](O)C[C@@H]1O	3
30%	85%	85%	80	90%	C=C1/C(=C/C=C/[C@@H]2CC[C@H]([C@H](C)CCCC(C)(C)O)C2(C)C)C[C@@H](O)C[C@@H]1O	0.3
10%	100%	150%	40	200%	C=C1/C(=C/C=C/[C@@H]2CC[C@H]([C@@H](C)CC#CC(C)(C)O)C2(C)C)C[C@@H](O)C[C@@H]1O	0.5
–	100%	200%	40	–	C=C1/C(=C/C=C/[C@@H]2CC[C@H]([C@H](C)CC#CC(C)(C)O)C2(C)C)C[C@@H](O)C[C@@H]1O	0.25
